According to US10703764B2, “Benzopiperazine compositions as BET bromodomain inhibitors” (FORMA Therapeutics, Inc., priority 2013, dated 2020):
Like-named read-outs stand apart in the source and are kept apart here.

How the values were obtained:
[1] = target: T1, BRD4 BD2 (Homo sapiens, UniProt O60885); assay: AlphaScreen binding assay, BRD4 Bromodomain 2
T1 construct: made in house
Procedure, shortened: (§1)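 Compound dilution series were mixed with His-tagged BRD4 bromodomain and biotinylated tetra-acetylated H4 (1-21) peptide at pH 7.3 (BD1 and peptide at 50 nM, BD2 and peptide at 100 nM). Donor and acceptor beads were then added, and plates were equilibrated at least 1 h before reading. IC50 values were fitted with a four-parameter logistic model.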

[2] = target: T2, BRD4 BD1 (Homo sapiens, UniProt O60885); assay: AlphaScreen binding assay, BRD4 Bromodomain 1
T2 construct: made in house
Procedure, shortened: as §1

[3] = system: MV4-11 cells; assay: Oncology cell growth assay (3-day proliferation, CellTiter-Glo); format: cell-based; conditions: Homo sapiens, AML cell line MV4-11, 72 hours, compounds grouped by IC50 range, read-out: MV4-11 IC50 (inhibition of proliferation, gIC50)
Procedure, shortened: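 Luminescence from CellTiter-Glo served as the growth read-out after MV4-11 cells (3000/well) were cultured with compound for 72 hours. Final concentrations spanned 10 to 0.0045 μM in 3-fold steps. gIC50 values were derived by four-parameter logistic fitting relative to DMSO and cell-free controls.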

| SMILES | IC50 [1] [nM] | IC50 [2] [nM] | IC50 ([3]; MV4-11, 72 h) [nM] | IC50 [3] [nM] |
| --- | --- | --- | --- | --- |
| CC(=O)N1c2ccc(-c3cnn(Cc4cc(C)no4)c3)cc2N(C(=O)OC(C)C)C[C@@H]1C [Example I-141, (S)-isopropyl 4-acetyl-3-methyl-7-(1-((3-methylisoxazol-5-yl)methyl)-1H-pyrazol-4-yl)-3,4-dihydroquinoxaline-1(2H)-carboxylate] | < 50 | 100 to 1000 | 100 to 500 |  |
| CC(=O)N[C@H]1CCN(C(=O)c2ccc(-c3ccc4c(c3)N(C(=O)OC(C)C)C[C@H](C)N4C(=O)C3CC3)cc2)C1 [Example I-570] | 50 to 500 | 100 to 1000 | 100 to 500 |  |
| CC(=O)N1c2ccc(-c3cnn(C)c3)cc2N(C(=O)c2ccco2)C[C@@H]1C [Example I-822] | < 50 | 100 to 1000 | 100 to 500 |  |
| CC(=O)N1c2ccc(-c3cnn(CC(F)(F)F)c3)cc2N(C(=O)OC(C)C)C[C@@H]1C [Example I-604] | 50 to 500 | < 100 | 100 to 500 |  |
| COC(=O)N1c2ccc(-c3cnn(C4CC4)c3)cc2N(C(=O)OC2CCOCC2)C[C@@H]1C [Example I-1002] | 50 to 500 | 100 to 1000 | 100 to 500 |  |
| CCS(=O)(=O)Nc1ccc(-c2ccc3c(c2)N(C(=O)OC2CCOCC2)C[C@H](C)N3C(C)=O)cc1 [Example I-1270] | 50 to 500 | 100 to 1000 | 100 to 500 |  |
| CC(=O)N1c2ccc(-c3cnn(CC(F)F)c3)cc2N(C(=O)C2CC2)C[C@@H]1C [Example I-651] | 50 to 500 | 100 to 1000 | > 500 |  |
| CC(C)OC(=O)N1C[C@H](C)N(C(=O)C2CC2)c2ccc(-c3ccc(C(=O)N4CC[C@@H](N(C)C)C4)cc3)cc21 [Example I-564] | 50 to 500 | 100 to 1000 | 100 to 500 |  |
| CC(=O)N1c2ccc(-c3ccc(S(=O)(=O)NC(C)(C)C)cc3)cc2N(C(=O)OC2CCOCC2)C[C@@H]1C [Example I-1266] | 50 to 500 | 100 to 1000 | 100 to 500 |  |
| CC(=O)N1c2ccc(-c3ccccc3F)cc2N(C(=O)c2ccco2)C[C@@H]1C [Example I-795] | 50 to 500 | 1000 to 10000 | > 500 |  |
| CC(=O)N1c2ccc(-c3cnn(Cc4ccccn4)c3)cc2N(C(=O)C2CC2)C[C@@H]1C [Example I-121, (S)-1-(4-(cyclopropanecarbonyl)-2-methyl-6-(1-(pyridin-2-ylmethyl)-1H-pyrazol-4-yl)-3,4-dihydroquinoxalin-1(2H)-yl)ethanone] | < 50 | 100 to 1000 | 100 to 500 |  |
| CC(=O)N1c2ccc(-c3ccc(S(=O)(=O)C(C)C)cc3)cc2N(C(=O)OC2CCCCC2)C[C@@H]1C [Example I-1231] | 50 to 500 | 100 to 1000 | 100 to 500 |  |
| CCOC(=O)N1C[C@H](C)N(C(C)=O)c2ccc(-c3ccc(S(=O)(=O)NCCO)cc3)cc21 [Example I-1037] | 50 to 500 | 1000 to 10000 | 100 to 500 |  |
| COc1ccc(-c2ccc3c(c2)N(C(=O)C2CCC2)C[C@H](C)N3C(C)=O)cc1N1CCCS1(=O)=O [Example I-1168] | 50 to 500 | 100 to 1000 | 100 to 500 |  |
| CC(=O)N1c2ccc(-c3cnn(C4CC4)c3)cc2N(c2ncc3ccccc3n2)C[C@@H]1C [Example I-51, (S)-1-(6-(1-cyclopropyl-1H-pyrazol-4-yl)-2-methyl-4-(quinazolin-2-yl)-3,4-dihydroquinoxalin-1(2H)-yl)ethanone] | 50 to 500 | 100 to 1000 | 100 to 500 |  |
| CC(=O)N1c2ccc(-c3cnn(C4COC4)c3)cc2N(C(=O)Oc2cccnc2)C[C@@H]1C [Example I-89, (S)-pyridin-3-yl 4-acetyl-3-methyl-7-(1-(oxetan-3-yl)-1H-pyrazol-4-yl)-3,4-dihydroquinoxaline-1(2H)-carboxylate] | < 50 | < 100 | 100 to 500 |  |
| CC(=O)N1c2ccc(-c3cccc(NS(C)(=O)=O)c3)cc2N(C(=O)C2CCC2)C[C@@H]1C [Example I-1044] | 50 to 500 | 1000 to 10000 | > 500 |  |
| CC(C)OC(=O)N1C[C@H](C)N(C(=O)C2CC2)c2ccc(-c3cnn(CCN4CCOCC4)c3)cc21 [Example I-312] | 50 to 500 | 100 to 1000 | 100 to 500 |  |
| CNC(=O)c1cccc(-c2ccc3c(c2)N(C(=O)c2ccco2)C[C@H](C)N3C(C)=O)c1 [Example I-801] | 50 to 500 | 100 to 1000 | > 500 |  |
| COC(=O)N1c2ccc(-c3cnn(CC4CC4)c3)cc2N(C(=O)OC(C)C)C[C@@H]1C [Example I-325] | 50 to 500 | 100 to 1000 | > 500 |  |
| COC(=O)N1c2ccc(-c3cnn(C4CC4)c3)cc2N(C(=O)OC2CCCC2)C[C@@H]1C [Example I-40, (S)-4-cyclopentyl 1-methyl 6-(1-cyclopropyl-1H-pyrazol-4-yl)-2-methyl-2,3-dihydroquinoxaline-1,4-dicarboxylate] | 50 to 500 | 100 to 1000 |  | 100 to 500 |

| SMILES | IC50 [1] [nM] | IC50 [2] [nM] | IC50 ([3]; MV4-11, 72 h) [nM] | IC50 [3] [nM] |
| --- | --- | --- | --- | --- |
| CC(=O)N1c2ccc(-c3ccc(C(=O)NCCN)cc3)cc2N(C(=O)c2ccco2)C[C@@H]1C [Example I-426] | < 50 | 1000 to 10000 | 100 to 500 |  |
| CC(=O)N1c2ccc(-c3ccc(S(C)(=O)=O)cc3)cc2N(C(=O)c2cc3cccnc3[nH]2)CC1C (stereo not drawn) [Example I-789] | < 50 | 100 to 1000 | 100 to 500 |  |
| CC(=O)N1c2ccc(-c3cnn(CC4CC4(F)F)c3)cc2N(C(=O)OC(C)C)C[C@@H]1C (stereo partly drawn) [Example I-678] | 50 to 500 | 100 to 1000 | 100 to 500 |  |
| CC(=O)N1c2ccc(-c3ccc(S(=O)(=O)C(C)C)cc3)cc2N(C(=O)C2CC2)C[C@@H]1C [Example I-1062] | 50 to 500 | 1000 to 10000 | > 500 |  |
| CC(=O)N1c2ccc(-c3ccc(S(=O)(=O)N(C)C)cc3)cc2N(C(=O)OC(C)C)C[C@@H]1C [Example I-1126] | 50 to 500 | 1000 to 10000 | 100 to 500 |  |
| CC(=O)N1c2ccc(-c3cnn(CC4CCC4)c3)cc2N(C(=O)C2CC2)C[C@@H]1C [Example I-656] | 50 to 500 | 100 to 1000 | 100 to 500 |  |
| CC(=O)N1c2ccc(-c3cnn(C4CCNCC4)c3)cc2N(C(=O)Oc2ccc(F)cc2)C[C@@H]1C [Example I-1149] | 50 to 500 | 100 to 1000 |  | < 100 |
| CC(=O)N1c2ccc(-c3ccc(C(=O)N(C)CCN4CCCC4)cc3)cc2N(C(=O)OC(C)C)C[C@@H]1C [Example I-551] | 50 to 500 | 100 to 1000 | 100 to 500 |  |
| CC(=O)N1c2ccc(-c3cnn(C4CC4)c3)cc2N(C(=O)Oc2cccc3ccc(C)nc23)C[C@@H]1C [Example I-515] | 50 to 500 | 100 to 1000 | < 100 |  |
| CC(=O)N1c2ccc(-c3ccc(S(C)(=O)=O)cc3)cc2N(c2n[nH]c3ccccc23)C[C@@H]1C [Example I-94, (S)-1-(4-(1H-indazol-3-yl)-2-methyl-6-(4-(methylsulfonyl)phenyl)-3,4-dihydroquinoxalin-1 (2H)-yl)ethan-1-one] | 50 to 500 | 100 to 1000 | < 100 |  |
| CCOC(=O)N1C[C@H](C)N(C(C)=O)c2ccc(-c3ccc(S(N)(=O)=O)cc3)cc21 [Example I-1068] | 50 to 500 | 1000 to 10000 | > 500 |  |
| CCS(=O)(=O)Nc1cccc(-c2ccc3c(c2)N(C(=O)C2CCC2)C[C@H](C)N3C(C)=O)c1 [Example I-1055] | 50 to 500 | 1000 to 10000 | > 500 |  |
| CC(=O)N1c2ccc(-c3ccc(S(C)(=O)=O)cn3)cc2N(C(=O)c2ccco2)C[C@@H]1C [Example I-407] | < 50 | 1000 to 10000 | > 500 |  |
| CC(=O)N1c2ccc(-c3ccc(C(=O)N4CCN(S(C)(=O)=O)CC4)cc3)cc2N(C(=O)OC(C)C)C[C@@H]1C [Example I-549] | 50 to 500 | 100 to 1000 | 100 to 500 |  |
| CC(=O)N1c2ccc(-c3ccc(N4CCCC4=O)cc3)cc2N(C(=O)OC(C)C)C[C@@H]1C [Example I-1134] | 50 to 500 | 100 to 1000 | 100 to 500 |  |
| CC(=O)N1c2ccc(-c3ccc(C(=O)N4CCN(C)CC4)cc3)cc2N(C(=O)OC(C)C)C[C@@H]1C [Example I-544] | 50 to 500 | 100 to 1000 | 100 to 500 |  |
| CNS(=O)(=O)c1ccc(-c2ccc3c(c2)N(C(=O)C2CCC2)C[C@H](C)N3C(C)=O)cc1 [Example I-1120] | 50 to 500 | 1000 to 10000 | 100 to 500 |  |
| C[C@H]1CN(C(=O)C2CC2)c2cc(-c3cnn(C4CC4)c3)ccc2N1C(=O)C1CC1 [Example I-377] | 50 to 500 | 100 to 1000 | 100 to 500 |  |
| CC(=O)N1c2ccc(-c3cnn(Cc4nonc4C)c3)cc2N(C(=O)C2CC2)C[C@@H]1C [Example I-147, (S)-1-(4-(cyclopropanecarbonyl)-2-methyl-6-(1-((4-methyl-1,2,5-oxadiazol-3-yl)methyl)-1H-pyrazol-4-yl)-3,4-dihydroquinoxalin-1 (2H)-yl)ethanone] | 50 to 500 | 100 to 1000 | 100 to 500 |  |
| CCS(=O)(=O)Nc1cccc(-c2ccc3c(c2)N(C(=O)OC(C)C)C[C@H](C)N3C(C)=O)c1 [Example I-1057] | 50 to 500 | 100 to 1000 | 100 to 500 |  |
